Patent US7803816B2, “MCH receptor antagonists” (Hoffmann-La Roche Inc., priority 2005, dated 2010)
Structures can show the parent of a compound that is named as a salt.

Target: T1, recombinant human MCHR1-receptors (Homo sapiens, UniProt Q99705)
T1 construct: expressed in transfected cells
Test: MCHR filter binding assay (competition binding)
Details: membranes from CHO-K1 cells expressing human MCHR1; 0.2 nM [Phe13,[125I]Tyr19]-MCH; read-out: IC50 (nM), in vitro activity (binding assay)
In short: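 Membranes from CHO-K1 cells stably expressing human MCHR1 (2.8 μg) preincubated 15 min with competitor, then 1 h at rt with 0.2 nM [Phe13,[125I]Tyr19]-MCH in HEPES/CaCl2/BSA/phenanthroline/Triton buffer. Bound radioactivity counted after rapid filtration over PVP/BSA-treated GF/B filters.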

T1 sequence (Q99705 whole entry): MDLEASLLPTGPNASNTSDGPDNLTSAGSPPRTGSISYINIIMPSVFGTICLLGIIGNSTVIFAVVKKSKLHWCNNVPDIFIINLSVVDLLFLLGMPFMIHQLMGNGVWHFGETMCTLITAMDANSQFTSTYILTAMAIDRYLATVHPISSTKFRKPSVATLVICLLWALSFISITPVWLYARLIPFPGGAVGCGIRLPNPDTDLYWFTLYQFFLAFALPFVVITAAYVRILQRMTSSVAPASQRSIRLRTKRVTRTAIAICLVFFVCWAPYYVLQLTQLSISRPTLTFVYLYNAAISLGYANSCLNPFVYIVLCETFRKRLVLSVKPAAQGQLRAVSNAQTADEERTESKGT

Compound | IC50
CO[C@H]1CN(C[C@H]2Cc3ccc(NC(=O)C(C)C)cc3C2)CC[C@@H]1n1c(C)nc2cc(C)ccc21 [Example 49, N-{(S)-2-[(3S,4S)-4-(2,5-Dimethyl-benzoimidazol-1-yl)-3-methoxy-piperidin-1-ylmethyl]-indan-5-yl}-isobutyramide] | 20 to 200 nM
Cc1ccc2c(c1)nc(C)n2C1CCN(C[C@@H]2Cc3ccc(NC(=O)C(C)C)cc3C2)CC1 [Example 35, N-{(R)-2-[4-(2,5-Dimethyl-benzoimidazol-1-yl)-piperidin-1-ylmethyl]-indan-5-yl}-isobutyramide] | < 20 nM
Cc1cc2ncn(C3CCN(CC4Cc5ccc(F)cc5C4)CC3)c2cc1F (stereo not drawn) [Example 106, 6-Fluoro-1-[1-(5-fluoro-indan-2-ylmethyl)-piperidin-4-yl]-5-methyl-1H-benzoimidazole] | 20 to 200 nM
CO[C@@H]1CN(CC2Cc3ccc(C)cc3C2)CC[C@H]1n1c(C(C)(C)O)nc2cc(F)ccc21 (stereo partly drawn) [Example 110, 2-{5-Fluoro-1-[(3R,4R)-3-methoxy-1-(5-methyl-indan-2-ylmethyl)-piperidin-4-yl]-1H-benzoimidazol-2-yl}-propan-2-ol] | 20 to 200 nM
CO[C@@H]1CN(CC2Cc3ccc(F)cc3C2)CC[C@H]1n1c(C)nc2cc(C)ccc21 (stereo partly drawn) [Example 20, 1-[(3R,4R)-1-(5-Fluoro-indan-2-ylmethyl)-3-methoxy-piperidin-4-yl]-2,5-dimethyl-1H-benzoimidazole] | 20 to 200 nM
CCC(=O)Nc1ccc2c(c1)C[C@H](CN1CC[C@@H](n3c(C(C)C)nc4cc(C)ccc43)[C@H](O)C1)C2 [Example 84, N-{(R)-2-[(3R,4R)-3-Hydroxy-4-(2-isopropyl-5-methyl-benzoimidazol-1-yl)-piperidin-1-ylmethyl]-indan-5-yl}-propionamide] | < 20 nM
Cc1cc2nc(C(C)(C)O)n(C3CCN(CC4Cc5ccc(F)cc5C4)CC3)c2cc1F (stereo not drawn) [Example 13, 2-{6-Fluoro-1-[1-(5-fluoro-indan-2-ylmethyl)-piperidin-4-yl]-5-methyl-1H-benzoimidazol-2-yl}-propan-2-ol] | < 20 nM
CO[C@@H]1CN(C[C@@H]2Cc3ccc(NC(=O)C(C)C)cc3C2)CC[C@H]1n1c(C2CC2)nc2cc(C)ccc21 [Example 73, N-{(R)-2-[(3R,4R)-4-(2-Cyclopropyl-5-methyl-benzoimidazol-1-yl)-3-methoxy-piperidin-1-ylmethyl]-indan-5-yl}-isobutyramide] | 20 to 200 nM
CCc1nc2cc(C)ccc2n1C1CCN(CC2Cc3ccc(NC(=O)C(C)C)cc3C2)CC1 (stereo not drawn) [Example 70, N-{2-[4-(2-Ethyl-5-methyl-benzoimidazol-1-yl)-piperidin-1-ylmethyl]-indan-5-yl}-isobutyramide] | < 20 nM
CC(=O)c1nc2cc(C)ccc2n1C1CCN(CC2Cc3ccccc3C2)CC1 [Example 82, 1-[1-(1-Indan-2-ylmethyl-piperidin-4-yl)-5-methyl-1H-benzoimidazol-2-yl]-ethanone] | 200 to 5000 nM
COC(=O)Nc1ccc2c(c1)C[C@H](CN1CC[C@H](n3c(C4CC4)nc4cc(C)ccc43)[C@@H](OC)C1)C2 [Example 71, {(R)-2-[(3S,4S)-4-(2-Cyclopropyl-5-methyl-benzoimidazol-1-yl)-3-methoxy-piperidin-1-ylmethyl]-indan-5-yl}-carbamic acid methyl ester] | < 20 nM
CO[C@H]1CN(C[C@@H]2Cc3ccc(NC(=O)C(C)C)cc3C2)CC[C@@H]1n1c(C)nc2cc(C)ccc21 [Example 34, N-{(R)-2-[(3S,4S)-4-(2,5-Dimethyl-benzoimidazol-1-yl)-3-methoxy-piperidin-1-ylmethyl]-indan-5-yl}-isobutyramide] | < 20 nM
Cc1ccc2c(c1)CC(CN1CCC(n3c(C(C)(C)F)nc4cc(C)ccc43)CC1)C2 (stereo not drawn) [Example 105, 2-(1-Fluoro-1-methyl-ethyl)-5-methyl-1-[1-(5-methyl-indan-2-ylmethyl)-piperidin-4-yl]-1H-benzoimidazole] | 200 to 5000 nM
CO[C@H]1CN(C[C@@H]2Cc3ccc(NC(=O)C(F)F)cc3C2)CC[C@@H]1n1c(C(C)C)nc2cc(C)ccc21 [Example 67, 2,2-Difluoro-N-{(R)-2-[(3S,4S)-4-(2-isopropyl-5-methyl-benzoimidazol-1-yl)-3-methoxy-piperidin-1-ylmethyl]-indan-5-yl}-acetamide] | < 20 nM
CO[C@H]1CN(CC2Cc3ccccc3C2)CC[C@@H]1n1c(C(C)C)nc2cc(C)ccc21 [Example 29, 1-((3S,4S)-1-Indan-2-ylmethyl-3-methoxy-piperidin-4-yl)-2-isopropyl-5-methyl-1H-benzoimidazole] | 200 to 5000 nM
CO[C@H]1CN(CC2Cc3cc(Cl)c(Cl)cc3C2)CC[C@@H]1n1c(C)nc2cc(C)ccc21 [Example 94, 1-[(3S,4S)-1-(5,6-Dichloro-indan-2-ylmethyl)-3-methoxy-piperidin-4-yl]-2,5-dimethyl-1H-benzoimidazole; dihydrochloride] | 200 to 5000 nM

Compound | IC50
CO[C@H]1CN(C[C@@H]2Cc3ccc(Br)cc3C2)CC[C@@H]1n1c(C(C)C)nc2cc(C)ccc21 [Example 90, 1-[(3S,4S)-1-((R)-5-Bromo-indan-2-ylmethyl)-3-methoxy-piperidin-4-yl]-2-isopropyl-5-methyl-1H-benzoimidazole] | 200 to 5000 nM
COc1ccc2c(c1)CC(CN1CC[C@H](n3c(C(C)C)nc4cc(C)ccc43)[C@@H](OC)C1)C2 (stereo partly drawn) [Example 93, 2-Isopropyl-1-[(3S,4S)-3-methoxy-1-(5-methoxy-indan-2-ylmethyl)-piperidin-4-yl]-5-methyl-1H-benzoimidazole dihydrochloride] | 20 to 200 nM
CO[C@@H]1CN(CC2Cc3ccccc3C2)CC[C@H]1n1c(C)nc2cc(C)ccc21 [Example 50, 1-((3R,4R)-1-Indan-2-ylmethyl-3-methoxy-piperidin-4-yl)-2,5-dimethyl-1H-benzoimidazole] | 20 to 200 nM
Cc1ccc2c(c1)nc(C)n2C1CCN(C[C@H]2Cc3ccc(NC(=O)C(C)C)cc3C2)CC1 [Example 48, N-{(S)-2-[4-(2,5-Dimethyl-benzoimidazol-1-yl)-piperidin-1-ylmethyl]-indan-5-yl}-isobutyramide] | 20 to 200 nM
COC(=O)Nc1ccc2c(c1)C[C@H](CN1CCC(n3c(-c4ccccc4)nc4cc(C)ccc43)CC1)C2 [Example 42, {(R)-2-[4-(5-Methyl-2-phenyl-benzoimidazol-1-yl)-piperidin-1-ylmethyl]-indan-5-yl}-carbamic acid methyl ester] | < 20 nM
Cc1ccc2c(c1)nc(C)n2[C@@H]1CCN(C[C@@H]2Cc3ccc(NC(=O)C(C)C)cc3C2)C[C@H]1CO (racemic) [Example 3, N-{(R)-2-[4-(2,5-Dimethyl-benzoimidazol-1-yl)-3-hydroxymethyl-piperidin-1-ylmethyl]-indan-5-yl}-isobutyramide] | < 20 nM
CO[C@H]1CN(CC2Cc3cc(F)c(F)cc3C2)CC[C@@H]1n1c(C)nc2cc(C)ccc21 [Example 101, 1-[(3S,4S)-1-(5,6-Difluoro-indan-2-ylmethyl)-3-methoxy-piperidin-4-yl]-2,5-dimethyl-1H-benzoimidazole] | 20 to 200 nM
CO[C@@H]1CN(CC2Cc3ccc(F)cc3C2)CC[C@H]1n1cnc2cc(C)ccc21 (stereo partly drawn) [Example 118, 1-[(3R,4R)-1-(5-Fluoro-indan-2-ylmethyl)-3-methoxy-piperidin-4-yl]-5-methyl-1H-benzoimidazole] | 200 to 5000 nM
Cc1ccc2c(c1)nc(C)n2C1CCN(CC2=Cc3ccc(NC(=O)C(C)C)cc3C2)CC1 [Example 53, N-{2-[4-(2,5-Dimethyl-benzoimidazol-1-yl)-piperidin-1-ylmethyl]-3H-inden-5-yl}-isobutyramide] | 20 to 200 nM
CO[C@@H]1CN(CC2Cc3ccc(C(C)C)cc3C2)CC[C@H]1n1c(C)nc2cc(C)ccc21 (stereo partly drawn) [Example 104, 1-[(3R,4R)-1-(5-Isopropyl-indan-2-ylmethyl)-3-methoxy-piperidin-4-yl]-2,5-dimethyl-1H-benzoimidazole] | 200 to 5000 nM
CO[C@H]1CN(CC2Cc3ccc(Cl)cc3C2)CC[C@@H]1n1c(C)nc2cc(C)ccc21 (stereo partly drawn) [Example 19, 1-[(3S,4S)-1-(5-Chloro-indan-2-ylmethyl)-3-methoxy-piperidin-4-yl]-2,5-dimethyl-1H-benzoimidazole; dihydrochloride] | 20 to 200 nM
Cc1ccc2c(c1)nc(C(C)(C)O)n2C1CCN(CC2Cc3ccncc3C2)CC1 (stereo not drawn) [Example 12, 2-{1-[1-(6,7-Dihydro-5H-[2]pyrindin-6-ylmethyl)-piperidin-4-yl]-5-methyl-1H-benzoimidazol-2-yl}-propan-2-ol] | 20 to 200 nM
CO[C@H]1CN(CC2Cc3ccccc3C2)CC[C@@H]1n1c(C)nc2cc(C)ccc21 [Example 81, 1-((3S,4S)-1-Indan-2-ylmethyl-3-methoxy-piperidin-4-yl)-2,5-dimethyl-1H-benzoimidazole] | 200 to 5000 nM
CCC(=O)Nc1ccc2c(c1)C[C@H](CN1CCC(n3c(C(C)(C)O)nc4cc(C)ccc43)CC1)C2 [Example 8, N-((R)-2-{4-[2-(1-Hydroxy-1-methyl-ethyl)-5-methyl-benzoimidazol-1-yl]-piperidin-1-ylmethyl}-indan-5-yl)-propionamide] | 20 to 200 nM
CCC(=O)Nc1ccc2c(c1)C[C@H](CN1CC[C@@H](n3c(C4CC4)nc4cc(C)ccc43)[C@H](OC)C1)C2 [Example 76, N-{(R)-2-[(3R,4R)-4-(2-Cyclopropyl-5-methyl-benzoimidazol-1-yl)-3-methoxy-piperidin-1-ylmethyl]-indan-5-yl}-propionamide] | 20 to 200 nM

Same assay, conditions: membranes from CHO-K1 cells expressing human MCHR1; 0.2 nM [Phe13,[125I]Tyr19]-MCH; read-out: IC50 (nM), selected in vitro MCH-R binding data

Compound | IC50
Cc1cc2ncn(C3CCN(CC4Cc5ccc(F)cc5C4)CC3)c2cc1F (stereo not drawn) [Example 106, 6-Fluoro-1-[1-(5-fluoro-indan-2-ylmethyl)-piperidin-4-yl]-5-methyl-1H-benzoimidazole] | 194 nM
Cc1ccc2c(c1)nc(C(C)(C)O)n2[C@@H]1CCN(C[C@H]2Cc3ccc(Br)cc3C2)CC1O (stereo in doubt) [Example 126, (3R,4R)-1-((S)-5-Bromo-indan-2-ylmethyl)-4-[2-(1-hydroxy-1-methyl-ethyl)-5-methyl-benzoimidazol-1-yl]-piperidin-3-ol] | 2 nM
